Test results as given in patent US7256252B1, “Methods for detecting cell apoptosis” (Cephalon, Inc., priority 1996, dated 2007).

Columns and labels:
Hippocampal neurons = assay type: cell-based; details: hippocampal neurons in primary culture, 3-nitropropionic acid applied
Text: Similar results were obtained with other cells. Hippocampal neurons grown in primary culture were stimulated to die by application of the neurotoxic metabolic poison 3-nitropropionic acid.

HL60 cells = experiment: Etoposide-triggered apoptotic proteolysis in HL60 cells (immunoblot); assay type: cell-based, human; details: 17 micromolar etoposide, 2 or 4 hours
Method: HL60 cells (obtained from the American Type Culture Collection, Rockville, Md.) were cultured using published techniques (Collins et al., Nature, 270:347-349 (1977), incorporated herein by reference). Cultures of cells were incubated with either 17 micromolar etoposide (from a 1000× stock solution made in dimethylsulfoxide) to trigger apoptosis or a vehicle. After either 2 or 4 hours, cells were lysed in ice cold 25 millimolar (mM) HEPES (pH 7.5), 5 mM MgCl2, 0.1% Triton X-100 and a cocktail of protease inhibitors (1 mM EGTA, 10 micrograms per ml of aprotinin, 10 micrograms per ml of leupeptin, 7 micrograms per ml of pepstatin A, 1 mM phenylmethylsulfonylfluoride (PMSF). The resulting cell lysates were subjected to SDS-polyacrylamide gel electrophoresis on 4-20% Tris-glycine gradient gels, and the separated proteins transferred to nitrocellulose membranes by Western blotting. The blots were immunostained with Ab127 ( 1/5,000) followed by incubation with alkaline phosphatase conjugated goat anti-rabbit IgG (Bio-Rad, Burlingame, Calif.) and visualized as described previously (Roberts-Lewis et al., J. Neurosci. 14:3934-3944 (1994), incorporated herein by reference).

Row | SMILES | apoptotic neurons by Hoechst 33258 nuclear stain (Hippocampal neurons) | level of about 30 kDa immunoreactive polypeptide (HL60 cells)
1 | O=C(O)CC[N+](=O)[O-] [3-nitropropionic acid] | presence of apoptotic neurons | –
2 | COc1cc([C@@H]2c3cc4c(cc3[C@@H](O[C@@H]3O[C@@H]5CO[C@@H](C)O[C@H]5[C@H](O)[C@H]3O)[C@H]3COC(=O)[C@H]23)OCO4)cc(OC)c1O [etoposide] | – | increased with increasing time of cell exposure
